Measurements reported in PMC7072103, “Simultaneous Determination of 13 Constituents of Radix Polygoni Multiflori in Rat Plasma and Its Application in a Pharmacokinetic Study” (International Journal of Analytical Chemistry, 2020).
Entries after “also recorded” stand apart in the source; their conditions may differ. Read-outs that look alike come from different tables or passages of the source.

Key:
[1] = Pharmacokinetic study in rats after oral administration of RPM extract (UPLC-MS/MS of plasma); assay type: in vivo, Sprague-Dawley rats; details: for Latest plasma sample time at which the constituent was detected / Detection in rat plasma after oral RPM extract: RPM extract 36 g/kg oral; for Latest plasma sample time at which the constituent was detected: sampling up to 24 h; for Detection in rat plasma after oral RPM extract: real plasma samples
Description: The analysis was performed on an AB Sciex API 5500 Q Trap mass spectrometer (Toronto, Canada), interfaced with a Waters Acquity UPLC separation module. Empower 3.0 and Analyst 1.62 software were used to control UPLC and mass spectrometer, respectively.
Chromatographic separation was achieved on a waters HSS C18 column (100 × 2.1 mm, 1.8 μm, kept at 40°C) using a mobile phase containing 0.025% formic acid that consisted of solvent A (water) and solvent B (acetonitrile). The mobile phase was delivered at 0.3 mL/min, and a gradient program was used as follows: 0-1 min, held 5% to 25% solvent B; 1–3.5 min, linear gradient from 25% to 35% solvent B; 3.5–5 min, linear gradient from 35% to 40% solvent B; 5-6 min, linear gradient from 40% to 60% solvent B; 6-6.1 min, linear gradient from 60% to 95% solvent B; 6.1–8 min, linear gradient from 95% to 100% solvent B; and 8-9 min, held 5% solvent B.
The MS detection was set in positive multiple reaction monitoring (MRM) mode for the analytes and IS. The turbo spray temperature was maintained at 500°C. The nebulizer gas (gas 1), heater gas (gas 2), and curtain gas was set at 45, 50, and 45 psi, respectively. The interface heater was on. The precursor ion, corresponding product ion and dwell time along with declustering potential (DP), entrance potential (EP), collision energy (CE), and collision exit potential (CXP) for each compound were optimized with standard substance. The dwell time was 50 ms for all analytes. The EP and CXP were set at –10 V and −16 V, respectively.
Sample preparations were made using the protein precipitation process. 50 μL thawed plasma, 10 μL IS working solution (puerarin 10 μg/mL), and 150 μL acetonitrile were added to a 1.5 mL tube in that order. After vortexed for 5 min and centrifuged at 12,000 g for 5 min at 4°C, 150 μL of the supernatant was transferred and a 5 μL was injected into the UPLC-MS/MS instrument for analysis.
Male Sprague-Dawley rats (200–240 g) were obtained from Beijing Vital River Laboratory Animal Technology Co., Ltd. (Beijing, China) (SCXK 2016(jing)-0006). The animals were maintained in SPF animal room at temperature 22 ± 2°C, 60 ± 5% humidity, and 12/12 h day/night cycle. All procedures were approved by the Institutional Animal Ethics Committee and performed in accordance with the Regulations of Experiment Animal Administration issued by the State Committee of Science and Technology of China. RPM extract suspended in an equal volume of 5% CMC-Na solution and orally administered to the six rats at a single dose of 36 g/kg (dose calculated as grams of crude materials used to create the extract per kilogram of rat body weight). The dose was set at a subtoxic level to investigate the pharmacokinetic profiles of the constituents of RPM and were approximately 72 times the upper dose (6 g/day) of human recommended by the 2015 edition of Chinese Pharmacopoeia (converted to rat dose based on body surface area conversion). The calculated doses of compounds based on the contents in the extract were 7.38, 14.8, 13.7, 8.82, 15.5, 11.2, 55.8, 1.08, 1170, 11.3, 25.7, 131.4, and 13.0 mg/kg for chrysophanol, emodin, aloe-emodin, rhein, physcion, questin, citreorosein, questinol, TSG, TG, CG, EG, and PG, respectively. Rats were fasted for at least 12 h before the experiments and had free access to water. Blood samples (∼0.25 mL) were collected from the retinal venous plexus into heparinized 1.5 mL polythene tubes before administration and 5, 15, and 30 min and 1, 2, 4, 6, 8, 12, and 24 h after dosing RPM extract at dose of 36 g/kg. The plasma was immediately separated from blood samples and stored frozen at −70°C until analysis.
The pharmacokinetic parameters were calculated using the pharmacokinetic software Phoenix® WinNonlin®, version 7.0 (Scientific Consulting Inc., Apex, NC, USA). The peak plasma concentration (Cmax) and time to reach Cmax (Tmax) were read directly from the experimental data. […]

[2] = Stability of the analytes in rat plasma and processed plasma samples; assay type: in vitro ADME; details: for Stability, post-preparative: acetonitrile-precipitated plasma supernatant, 24 h at 6°C in autosampler; for Stability, long-term (–70 °C) / Stability, short-term / Stability, freeze–thaw (three cycles): rat plasma; for Stability, long-term (–70 °C): 3 months at −70°C; for Stability, short-term: 4 h at room temperature; for Stability, freeze–thaw (three cycles): −70°C to room temperature
Description: The stability of the 13 analytes in rat plasma were assessed by analyzing samples spiked 0.2, 2.7, and 58.3 ng/mL for emodin, aloe-emodin, questin, citreorosein, questinol, TG, CG, EG, PG; 0.6, 8.1, and 175 ng/mL for TSG; 1, 13.5, and 291.6 ng/mL for rhein, physcion; and 2, 27, and 583.2 ng/mL for chrysophanol, respectively, under four conditions: (1) short-term storage for 4 h at room temperature; (2) long-term storage for (3 months at −70°C; (3) three freeze-thaw cycles; and (4) posttreatment storage for 24 h at 6°C setting in UPLC autosampler. The concentrations obtained were compared with the nominal values of the spiked samples. The stability was calculated as the percent of the measured concentration to the initial concentration at time zero. The analytes were considered stable if the assay values were within the acceptable limit of accuracy (85.0∼115%).

[3] = male, Sprague-Dawley, in vivo, rat plasma, single oral dose of RPM extract 36 g/kg, n = 6, mean ± SD, read-out: AUC0–∞
[4] = male, Sprague-Dawley, in vivo, rat plasma, single oral dose of RPM extract 36 g/kg, n = 6, mean ± SD, read-out: Cmax
[5] = male, Sprague-Dawley, in vivo, rat plasma, single oral dose of RPM extract 36 g/kg, n = 6, mean ± SD, read-out: MRT0–∞
[6] = male, Sprague-Dawley, in vivo, rat plasma, single oral dose of RPM extract 36 g/kg, n = 6, mean ± SD, read-out: Tmax
[7] = male, Sprague-Dawley, in vivo, rat plasma, single oral dose of RPM extract 36 g/kg, n = 6, mean ± SD, read-out: t1/2 (converted)
[8] = male, Sprague-Dawley, rat, in vivo, po, 36 g/kg, rat plasma, single oral dose of RPM extract 36 g/kg, n = 6, mean ± SD, read-out: AUC0–t
[9] = high QC (58.3 ng/mL; TSG 175; rhein, physcion 292; chrysophanol 583)
[10] = low QC (0.2 ng/mL; TSG 0.6; rhein, physcion 1; chrysophanol 2)
[11] = middle QC (2.7 ng/mL; TSG 8.1; rhein, physcion 13.5; chrysophanol 27)
[12] = male, Sprague-Dawley, rat, plasma, po, 36 g/kg, rat plasma, single oral dose of RPM extract 36 g/kg, n = 6, mean ± SD, read-out: AUC0–t
[13] = male, Sprague-Dawley, rat plasma, single oral dose of RPM extract 36 g/kg, n = 6, mean ± SD, read-out: AUC0–∞
[14] = male, Sprague-Dawley, rat plasma, single oral dose of RPM extract 36 g/kg, n = 6, mean ± SD, read-out: Cmax
[15] = male, Sprague-Dawley, rat plasma, single oral dose of RPM extract 36 g/kg, n = 6, mean ± SD, read-out: MRT0–∞
[16] = male, Sprague-Dawley, rat plasma, single oral dose of RPM extract 36 g/kg, n = 6, mean ± SD, read-out: Tmax
[17] = male, Sprague-Dawley, rat plasma, single oral dose of RPM extract 36 g/kg, n = 6, mean ± SD, read-out: t1/2 (converted)
[18] = male, Sprague-Dawley, rat, in vivo, po, 36 g/kg
[19] = rat plasma, single oral dose of RPM extract 36 g/kg, n = 6, mean ± SD

## O=C1c2cccc(O)c2C(=O)c2c(O)cc(CO)cc21 [Aloe-emodin, aloe-emodin]
[1]
  Latest plasma sample time at which the constituent was detected: ≤ 12 h
[1]; [3]
  AUC(0-inf): 8.46 ± 3.44 ng·h/mL
[1]; [4]
  Cmax: 11.3 ± 3.1 ng/mL
[1]; [5]
  MRT inf: 3.17 ± 1.54 h
[1]; [6]
  Tmax: 0.22 ± 0.07 h
[1]; [7]
  half-life: 3.44 ± 1.4 h
[1]; [8]
  AUC(0-t): 7.28 ± 3.25 ng·h/mL
[2]; [9]
  Stability, post-preparative: 92.6%
  Stability, long-term (–70 °C): 102%
  Stability, short-term: 104%
  Stability, freeze–thaw (three cycles): 101%
[2]; [10]
  Stability, post-preparative: 96.4%
  Stability, long-term (–70 °C): 103%
  Stability, short-term: 105%
  Stability, freeze–thaw (three cycles): 99%
[2]; [11]
  Stability, post-preparative: 102%
  Stability, long-term (–70 °C): 98.4%
  Stability, short-term: 105%
  Stability, freeze–thaw (three cycles): 97.2%

## Cc1cc(O)c2c(c1)C(=O)c1cccc(O)c1C2=O [Chrysophanol, chrysophanol]
[1]
  Latest plasma sample time at which the constituent was detected: ≤ 6 h
[1]; [12]
  AUC(0-t): 4.28 ± 1.64 ng·h/mL
[1]; [13]
  AUC(0-inf): 10.3 ± 1.87 ng·h/mL
[1]; [14]
  Cmax: 1.9 ± 0.56 ng/mL
[1]; [15]
  MRT inf: 6.76 ± 2.06 h
[1]; [16]
  Tmax: 2.22 ± 1.76 h
[1]; [17]
  half-life: 3.18 ± 0.62 h

## O=C1c2cc(O)cc(O)c2C(=O)c2c(O)cc(CO)cc21 [Citreorosein, 1,3,8-trihydroxy-6-(hydroxymethyl)anthracene-9,10-dione]
[1]; male, Sprague-Dawley, rat, in vivo, po
  Relative bioavailability versus emodin (AUC0–t normalized by molecular weight and dose): 15.8%
[1]; [18]
  AUC0–t: 131 ± 96.9 ng·h/mL
  AUC0–t relative to that of emodin: 6.0 fold
  AUC(0-inf): 134 ± 96.4 ng·h/mL
  Cmax: 149 ± 147 ng/mL
  MRT inf: 5.32 ± 1.85 h
  Tmax: 0.19 ± 0.09 h
  half-life: 3.97 ± 1.31 h
[1]; male, Sprague-Dawley, rat, in vivo, po, 36 g/kg, AUC0–t
  AUC(0-t): 134 ± 96.4 ng·h/mL

## Cc1cc(O)c2c(c1)C(=O)c1cc(O)cc(O)c1C2=O [Emodin, 1,3,8-trihydroxy-6-methylanthracene-9,10-dione]
[1]; [3]
  AUC(0-inf): 801 ± 233 ng·h/mL
[1]; [4]
  Cmax: 175 ± 33.8 ng/mL
[1]; [5]
  MRT inf: 11.8 ± 5.27 h
[1]; [6]
  Tmax: 0.19 ± 0.09 h
[1]; [7]
  half-life: 8.37 ± 4.17 h
[1]; [8]
  AUC(0-t): 801 ± 187 ng·h/mL
[1]; [19]
  AUC0–t: 686 ± 187 ng·h/mL
[2]; [9]
  Stability, post-preparative: 98.1%
  Stability, long-term (–70 °C): 101%
  Stability, short-term: 106%
  Stability, freeze–thaw (three cycles): 104%
[2]; [10]
  Stability, post-preparative: 101%
  Stability, long-term (–70 °C): 100%
  Stability, short-term: 93.6%
  Stability, freeze–thaw (three cycles): 102%
[2]; [11]
  Stability, post-preparative: 103%
  Stability, long-term (–70 °C): 102%
  Stability, short-term: 105%
  Stability, freeze–thaw (three cycles): 104%

## COc1cc(O)c2c(c1)C(=O)c1cc(C)cc(O)c1C2=O [Physcion, physcion]
[1]
  Detection in rat plasma after oral RPM extract: not detected
[1]; listed as physcion
  Detection in rat plasma after oral RPM extract: too low to be detected

## COc1cc(O)cc2c1C(=O)c1c(O)cc(C)cc1C2=O [Questin, questin]
[1]
  Detection in rat plasma after oral RPM extract: not detected; also recorded: too low to be detected

## O=C(O)c1cc(O)c2c(c1)C(=O)c1cccc(O)c1C2=O [Rhein, rhein]
[1]
  Latest plasma sample time at which the constituent was detected: ≤ 2 h
[1]; [12]
  AUC(0-t): 1.11 ± 0.63 ng·h/mL
[1]; [13]
  AUC(0-inf): 2.31 ± 0.51 ng·h/mL
[1]; [14]
  Cmax: 1.06 ± 0.24 ng/mL
[1]; [15]
  MRT inf: 1.83 ± 0.56 h
[1]; [16]
  Tmax: 0.46 ± 0.1 h
[1]; [17]
  half-life: 1.18 ± 0.39 h

## COc1cc(O[C@@H]2O[C@H](CO)[C@@H](O)[C@H](O)[C@H]2O)c2c(O)c(C(C)=O)c(C)cc2c1 [TG, torachrysone-8-O-glucoside]
[1]; [12]
  AUC(0-t): 21.2 ± 7.38 ng·h/mL
[1]; [13]
  AUC(0-inf): 21.7 ± 7.48 ng·h/mL
[1]; [14]
  Cmax: 18.7 ± 4.06 ng/mL
[1]; [15]
  MRT inf: 2.1 ± 0.24 h
[1]; [16]
  Tmax: 0.11 ± 0.07 h
[1]; [17]
  half-life: 2 ± 0.63 h

## OC[C@H]1O[C@@H](Oc2c(O)cc(O)cc2/C=C/c2ccc(O)cc2)[C@H](O)[C@@H](O)[C@@H]1O [TSG, 2,3,5,4′-tetrahydroxystilbene-2-O-β-D-glucoside]
[1]; [12]
  AUC(0-t): 1870 ± 554 ng·h/mL
[1]; [13]
  AUC(0-inf): 1870 ± 581 ng·h/mL
[1]; [14]
  Cmax: 1740 ± 401 ng/mL
[1]; [15]
  MRT inf: 3.66 ± 0.97 h
[1]; [16]
  Tmax: 0.33 ± 0.13 h
[1]; [17]
  half-life: 5.98 ± 2.62 h
[1]; [19]
  AUC0–t: 1811 ± 554 ng·h/mL
